{
  "source": "patent US7258999B2",
  "about": "“PTH responsive gene” (Wyeth, priority 2002, dated 2007)",
  "key": {"PAIGB protein": {"system": "PAIGB protein", "assay": "Immunohistochemistry of PAIGB protein in mouse calvariae", "format": "in vivo", "conditions": "Swiss Webster mice, 20 μg/kg/day sc onto the calvariae, 18 days", "method": "Immunohistochemical analysis of PAIGB protein express can be assessed in various animal species such as human bone biopsy samples, mouse, rat, or dog bone samples etc., that have been treated with potential bone anabolic agents. For example, Swiss Webster mice were treated with 20 μg/kg/day PTH 1-34 subcutaneously onto the calvariae for 18 days. Following the 18 days, the calvariae samples were harvested and PAIGB protein expression was analyzed using the PAIGB polyclonal antibody (FIG. 20, FIG. 21 and FIG. 22).\nThe mouse calvariae was gently dissected and fixed in 10% phosphate-buffered formalin. After fixation, the calvariae were decalcified in TBD-2 decalcifying agent (SHANDON, Cat. # 6764003) for 7-8 hrs, dehydrated in graded alcohol, embedded in paraffin. The calvariae was bisected perpendicular to the sagittal suture through the central portion of the parietal bones parallel to the lambdoidal and coronal sutures and embedded in paraffin. Four to six 5 μm-thick representative, non-consecutive step sections were cut. Various sections were stained with hematoxylin and eosin (H&E) (Sigma, St. Louis, Mo.) and adjacent section were used for immunohistochemistry. The bone samples were then deparafinized in xylene and rehydrated in graded ethanol and PBS. […] The peroxidase was detected using peroxidase substrate kit DAB (SK-4100, Vector Laboratories)."}, "PAIGB expression": {"system": "PAIGB expression", "assay": "RADE differential display of rat tibia RNA after PTH administration", "format": "in vivo", "conditions": "eight days", "method": "Total RNA was isolated and each RNA sample was then treated with 20 units of DNAse (Ambion, Austin, Tex.). After RNA cleaning, samples were split into three reverse transcription (RT) reactions. Each RT reaction contained 4 μg RNA, 1000 units SuperScript II RT (Gibco), 100 μM dNTPs and 0.2 μM anchor primer in a final volume of 100 μl. Anchor primers had the sequence (5′→3′) T11A, T11C, or T11G. For differential display each cDNA sample was subjected, in duplicate, to 80 PCR reactions using the appropriate anchor primer and one of 80 arbitrary primers (HAPs 1-80; Genhunter). PCR reactions contained in a final volume of 20 ul, 20 ng cDNA, 2 μM dNTPs, 0.2 μM anchor primer, 0.2 μM arbitrary primer, 1 unit Taq polymerase (Applied Biosystems (AB), Foster City, Calif.), and 2.5 μCi [α-^33P]dATP (2000 Ci/mmole). PCR conditions were as follows: 1 cycle of 92° C./2′, 40 cycles of [92° C./15″, 40° C./2′, 72° C./30″], and 1 cycle of 72° C./5′. PCR samples were then loaded onto a 50 cm 6% sequencing gel and run at 200 volts constant. Differentially expressed bands were excised from the dried gel. […]\nFemale Wister rats 4 weeks of age were treated with vehicle (saline) and human PTH (1-34) at a dose of 40 μg/kg of body weight for eight days. […] Three weeks post OVX total BMD was measured to determine if osteopenia was established. […]"}},
  "data": [
    {"substance": "human PTH (1-34)", "values": [
      {"measurement": "PAIGB protein expression in calvariae (immunohistochemistry)", "setting": "PAIGB protein", "result": "induced"},
      {"measurement": "PAIGB expression in bone RNA (RADE)", "setting": "PAIGB expression; continuous administration, 40 μg/kg/day", "result": "did not induce any changes"},
      {"measurement": "PAIGB expression in bone RNA (RADE)", "setting": "PAIGB expression; intermittent injection, 40 μg/kg", "result": "induced"}
    ]}
  ]
}
